The values below are quoted from earlier work in patent US10918602B2, “Compositions and methods for preparing polymeric films loaded with uniformly distributed drug particles” (New Jersey Institute of Technology, priority 2017, dated 2021).

The conditions of the series: literature examples.

In the case of `CN1C(=O)CN=C(c2ccccc2)c2cc(Cl)ccc21` [diazepam], the Diffusional exponent n is given as 0.82.

Turning to `COc1ccc2c(c1)c(CC(=O)O)c(C)n2C(=O)c1ccc(Cl)cc1` [indomethacin], the Diffusional exponent n is 0.9.
